Results on twelve molecules are retold here after PubChem BioAssay AID270 (DTP/NCI, 2004).

The test system of this experiment is BDF1 mice, s.c. Lewis lung carcinoma, T/C %. The experiment can be described thus: NCI In Vivo Anticancer Drug Screen. Data for tumor model Lewis Lung Carcinoma (subcutaneous) in B6D2F1 (BDF1) mice. In outline:
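Antitumor effect in vivo is scored from survival or tumor burden, reported as treated relative to vehicle controls.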

Setting [1] is: endpoint: median survival time, dose: 0.75 mg/kg/injection, schedule: Q01DX009 (ip), vehicle: Klucel (hydroxypropylcellulose) (HPC), higher = longer survival.

Values joined by “and” are separate entries in the source; they are usually repeats but may differ in a detail not shown here. Identical values can stand only once. Results filed as inconclusive are left out.

For the molecule `O=CC(NC(=O)N(CCCl)N=O)C(O)C(O)C(O)CO` (configuration not stated), the T/C was 121 % of control (endpoint: median survival time, dose: 1.25 mg/kg/injection, schedule: Q01DX009 (ip), vehicle: saline, higher = longer survival); 112 % of control (endpoint: median survival time, dose: 2.5 mg/kg/injection, schedule: Q01DX009 (ip), vehicle: saline, higher = longer survival); 105 % of control (endpoint: median survival time, dose: 3.3 mg/kg/injection, schedule: Q01DX009 (ip), vehicle: saline, higher = longer survival); 102 % of control (endpoint: median survival time, dose: 4.9 mg/kg/injection, schedule: Q01DX009 (ip), vehicle: saline, higher = longer survival); 118 % of control (endpoint: median survival time, dose: 5.0 mg/kg/injection, schedule: Q01DX009 (ip), vehicle: saline, higher = longer survival); 96 % of control (endpoint: median survival time, dose: 7.4 mg/kg/injection, schedule: Q01DX009 (ip), vehicle: saline, higher = longer survival). The T/C (endpoint: median survival time, dose: 10.0 mg/kg/injection, schedule: Q01DX001 (ip), vehicle: Klucel (hydroxypropylcellulose) (HPC), higher = longer survival) was 88 % of control and 109 % of control; the T/C (endpoint: median survival time, dose: 10.0 mg/kg/injection, schedule: Q01DX009 (ip), vehicle: saline, higher = longer survival) was 111 % of control; the T/C (endpoint: median survival time, dose: 12.0 mg/kg/injection, schedule: Q04DX003 (ip), vehicle: saline, higher = longer survival) was 93 % of control; the T/C (endpoint: median survival time, dose: 16.0 mg/kg/injection, schedule: Q01DX001 (ip), vehicle: saline, higher = longer survival) was 110 % of control; the T/C (endpoint: median survival time, dose: 18.0 mg/kg/injection, schedule: Q04DX003 (ip), vehicle: saline, higher = longer survival) was 108 % of control; the T/C (endpoint: median survival time, dose: 20.0 mg/kg/injection, schedule: Q01DX001 (ip), vehicle: Klucel (hydroxypropylcellulose) (HPC), higher = longer survival) was 95 % of control. The T/C is 96 % of control (endpoint: median survival time, dose: 24.0 mg/kg/injection, schedule: Q01DX001 (ip), vehicle: saline, higher = longer survival) and 98 % of control (endpoint: median survival time, dose: 36.0 mg/kg/injection, schedule: Q01DX001 (ip), vehicle: saline, higher = longer survival).

In the case of `O=c1[nH]cc(N(CCCl)CCCl)c(=O)[nH]1`, the T/C runs as follows: (endpoint: mean tumor weight, dose: 0.37 mg/kg/injection, schedule: Q01DX011 (ip), vehicle: carboxymethylcellulose (CMC), higher = larger tumour) 70 % of control; (endpoint: mean tumor weight, dose: 0.57 mg/kg/injection, schedule: Q01DX011 (ip), vehicle: carboxymethylcellulose (CMC), higher = larger tumour) 59 % of control; (endpoint: mean tumor weight, dose: 0.85 mg/kg/injection, schedule: Q01DX011 (ip), vehicle: carboxymethylcellulose (CMC), higher = larger tumour) 38 % of control.

With `O=C(O)CC(NC(=O)CP(=O)(O)O)C(=O)O.[NH-]C1CCCCC1[NH-].[Pt+2]` (configuration not stated), the T/C runs as follows: (endpoint: median survival time, dose: 2.0 mg/kg/injection, schedule: Q01DX009 (ip), vehicle: other, higher = longer survival) 90 % of control; (endpoint: median survival time, dose: 4.0 mg/kg/injection, schedule: Q01DX009 (ip), vehicle: other, higher = longer survival) 92 % of control; (endpoint: median survival time, dose: 6.0 mg/kg/injection, schedule: Q01DX009 (ip), vehicle: other, higher = longer survival) 95 % of control; (endpoint: median survival time, dose: 6.0 mg/kg/injection, schedule: Q04DX003 (ip), vehicle: other, higher = longer survival) 102 % of control; (endpoint: median survival time, dose: 8.0 mg/kg/injection, schedule: Q01DX009 (ip), vehicle: other, higher = longer survival) 96 % of control; (endpoint: median survival time, dose: 12.0 mg/kg/injection, schedule: Q04DX003 (ip), vehicle: other, higher = longer survival) 100 % of control. Besides, the T/C was 88 % of control (endpoint: median survival time, dose: 18.0 mg/kg/injection, schedule: Q04DX003 (ip), vehicle: other, higher = longer survival) and 102 % of control (endpoint: median survival time, dose: 24.0 mg/kg/injection, schedule: Q04DX003 (ip), vehicle: other, higher = longer survival).

With `COc1cc(NS(C)(=O)=O)ccc1Nc1c2ccccc2nc2c(C)cccc12`, the T/C runs as follows: (endpoint: median survival time, dose: 1.25 mg/kg/injection, schedule: Q01DX009 (ip), vehicle: Klucel (hydroxypropylcellulose) (HPC), higher = longer survival) 103 % of control; (endpoint: median survival time, dose: 5.0 mg/kg/injection, schedule: Q01DX009 (ip), vehicle: Klucel (hydroxypropylcellulose) (HPC), higher = longer survival) 121 % of control.

Take `O=c1ccc2ccccc2o1`: the T/C is, setting by setting: (endpoint: mean tumor weight, dose: 110.0 mg/kg/injection, schedule: Q01DX011 (ip), vehicle: carboxymethylcellulose (CMC), higher = larger tumour) 57 % of control; (endpoint: mean tumor weight, dose: 165.0 mg/kg/injection, schedule: Q01DX011 (ip), vehicle: carboxymethylcellulose (CMC), higher = larger tumour) 63 % of control.

`O=C1NC2C(NC(=O)N2Cl)N1Cl` (configuration not stated): the T/C (endpoint: mean tumor weight, dose: 20.0 mg/kg/injection, schedule: Q01DX011 (ip), vehicle: saline, higher = larger tumour) was 97 % of control and the T/C (endpoint: mean tumor weight, dose: 40.0 mg/kg/injection, schedule: Q01DX011 (ip), vehicle: saline, higher = larger tumour) is 114 % of control.

Take `c1ccc2nc3ccccc3c-2cc1`: the T/C (endpoint: mean tumor weight, dose: 125.0 mg/kg/injection, schedule: Q01DX011 (ip), vehicle: saline, higher = larger tumour) is 90 % of control; the T/C (endpoint: mean tumor weight, dose: 250.0 mg/kg/injection, schedule: Q01DX011 (ip), vehicle: saline, higher = larger tumour) is 76 % of control; the T/C (endpoint: mean tumor weight, dose: 500.0 mg/kg/injection, schedule: Q01DX011 (ip), vehicle: saline, higher = larger tumour) was 48 % of control; the T/C (endpoint: mean tumor weight, dose: 1000.0 mg/kg/injection, schedule: Q01DX011 (ip), vehicle: saline, higher = larger tumour) is 56 % of control.

In the case of `CC1CCCCN1` (configuration not stated), the T/C (endpoint: mean tumor weight, dose: 12.5 mg/kg/injection, schedule: Q01DX011 (ip), vehicle: saline, higher = larger tumour) was 95 % of control; the T/C (endpoint: mean tumor weight, dose: 25.0 mg/kg/injection, schedule: Q01DX011 (ip), vehicle: saline, higher = larger tumour) is 85 % of control; the T/C (endpoint: mean tumor weight, dose: 50.0 mg/kg/injection, schedule: Q01DX011 (ip), vehicle: saline, higher = larger tumour) is 80 % of control.

As for `CC(=N\O)/C(C)=N/O.CC(=N\O)/C(C)=N/O.[Pd]`, the T/C by setting is: under setting [1], 109 % of control; (endpoint: median survival time, dose: 1.57 mg/kg/injection, schedule: Q01DX009 (ip), vehicle: Klucel (hydroxypropylcellulose) (HPC), higher = longer survival) 97 % of control.

Consider `Cc1cc(N)c2cc(NC(=O)CCCCCCCCC(=O)Nc3ccc4nc(C)cc(N)c4c3)ccc2n1`, for which the T/C was 108 % of control (endpoint: mean tumor weight, dose: 12.5 mg/kg/injection, schedule: Q01DX011 (ip), vehicle: other, higher = larger tumour); 61 % of control (endpoint: mean tumor weight, dose: 50.0 mg/kg/injection, schedule: Q01DX011 (ip), vehicle: other, higher = larger tumour); 38 % of control (endpoint: mean tumor weight, dose: 100.0 mg/kg/injection, schedule: Q01DX011 (ip), vehicle: other, higher = larger tumour); 105 % of control (endpoint: median survival time, dose: 0.05 mg/kg/injection, schedule: Q01DX009 (ip), vehicle: Klucel (hydroxypropylcellulose) (HPC), higher = longer survival); 102 % of control (endpoint: median survival time, dose: 0.1 mg/kg/injection, schedule: Q01DX009 (ip), vehicle: Klucel (hydroxypropylcellulose) (HPC), higher = longer survival); 100 % of control (endpoint: median survival time, dose: 0.19 mg/kg/injection, schedule: Q01DX009 (ip), vehicle: Klucel (hydroxypropylcellulose) (HPC), higher = longer survival). Also, the T/C is 105 % of control (endpoint: median survival time, dose: 0.38 mg/kg/injection, schedule: Q01DX009 (ip), vehicle: Klucel (hydroxypropylcellulose) (HPC), higher = longer survival); 92 % of control under setting [1]; 96 % of control (endpoint: median survival time, dose: 1.5 mg/kg/injection, schedule: Q01DX009 (ip), vehicle: Klucel (hydroxypropylcellulose) (HPC), higher = longer survival); 92 % of control (endpoint: median survival time, dose: 3.0 mg/kg/injection, schedule: Q01DX009 (ip), vehicle: Klucel (hydroxypropylcellulose) (HPC), higher = longer survival); 94 % of control (endpoint: median survival time, dose: 3.12 mg/kg/injection, schedule: Q01DX009 (ip), vehicle: Klucel (hydroxypropylcellulose) (HPC), higher = longer survival); 104 % of control (endpoint: median survival time, dose: 6.25 mg/kg/injection, schedule: Q01DX009 (ip), vehicle: Klucel (hydroxypropylcellulose) (HPC), higher = longer survival). Further, the T/C is, setting by setting: (endpoint: median survival time, dose: 12.5 mg/kg/injection, schedule: Q01DX009 (ip), vehicle: Klucel (hydroxypropylcellulose) (HPC), higher = longer survival) 105 % of control; (endpoint: median survival time, dose: 100.0 mg/kg/injection, schedule: Q01DX009 (ip), vehicle: Klucel (hydroxypropylcellulose) (HPC), higher = longer survival) 118 % of control.

`O=c1[nH]c(=O)n(C2CC(O)C(CO)O2)cc1Br` (configuration not stated): the T/C is 67 % of control (endpoint: mean tumor weight, dose: 50.0 mg/kg/injection, schedule: Q01DX011 (ip), vehicle: carboxymethylcellulose (CMC), higher = larger tumour); 88 % of control (endpoint: mean tumor weight, dose: 100.0 mg/kg/injection, schedule: Q01DX011 (ip), vehicle: carboxymethylcellulose (CMC), higher = larger tumour); 41 % of control (endpoint: mean tumor weight, dose: 200.0 mg/kg/injection, schedule: Q01DX011 (ip), vehicle: carboxymethylcellulose (CMC), higher = larger tumour); 53 % of control (endpoint: mean tumor weight, dose: 400.0 mg/kg/injection, schedule: Q01DX011 (ip), vehicle: carboxymethylcellulose (CMC), higher = larger tumour).

As to `COC1C(O)CC(OC2CC(Oc3cc4cc5c(c(O)c4c(O)c3C)C(=O)[C@@H](OC3CC(OC4CC(OC6CC(C)(O)C(OC(C)=O)C(C)O6)C(O)C(C)O4)C(O)C(C)O3)[C@H]([C@H](OC)C(=O)[C@@H](O)[C@@H](C)O)C5)OC(C)C2OC(C)=O)OC1C` (some centres not stated), the T/C is 93 % of control (endpoint: mean tumor weight, dose: 33.0 micrograms/kg/injection, schedule: Q01DX011 (ip), vehicle: saline with Tween-80, higher = larger tumour); 82 % of control (endpoint: mean tumor weight, dose: 65.0 micrograms/kg/injection, schedule: Q01DX011 (ip), vehicle: saline with Tween-80, higher = larger tumour); 66 % of control (endpoint: mean tumor weight, dose: 130.0 micrograms/kg/injection, schedule: Q01DX011 (ip), vehicle: saline with Tween-80, higher = larger tumour); 107 % of control (endpoint: median survival time, dose: 0.02 mg/kg/injection, schedule: Q01DX011 (ip), vehicle: other, higher = longer survival).
